In patent US20100297194A1, “FORMULATION FOR ORAL ADMINISTRATION OF APOPTOSIS PROMOTER” (priority 2009, published 2010):
Like-named read-outs stand apart in the source and are kept apart here.

Key:
[1] = oral bioavailability in a rat model; conditions: in vivo, in 90% phosphatidylcholine+medium chain triglycerides 53/29 and 10% ethanol
[2] = drug solubility in ternary excipient systems (Example 2); format: physicochemical; design: key: ✓: vehicle miscible, or drug fully dissolved in vehicle; X: vehicle immiscible or miscible but turbid, or residual solids present (due to undissolved drug or precipitation); conditions: 10% salt, 20% free base, listed as ABT-263 free base
Description: Solvents evaluated included Labrafil M 1944 CS™, Imwitor 742™ oleic acid, Capmul PG-8™, Capmul PG-12™, Lauroglycol 90™ and Phosal 53 MCT™. Surfactants evaluated included Tween™ 80, Cremophor RH40™, Gelucire 44/14™ and Labrasol™.

[3] = solubility in lipid solvents (Example 1); format: physicochemical; conditions: ambient conditions;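 also: solubility in mg/g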
Method: Solubility of ABT-263 parent (free base, crystalline Form I) and ABT-263 bis-HCl salt was tested in a variety of lipid solvents and solvent mixtures in ambient conditions. “PE-91” is Phosal 53 MCT™+ethanol, 9:1 by volume. “LOT-343” is Labrafil M 1944 CS™+oleic acid+Tween 80™, 30:40:30 by weight.
In some cases, indicated in Table 4 by an asterisk (*), solubility was initially high but precipitation occurred upon standing.

[4] = rat; 2 mg/ml solution in PEG-400/DMSO; cited from earlier work
[5] = monkey; similar solution in PEG-400/DMSO; cited from earlier work

CN(C)CC[C@H](CSc1ccccc1)Nc1ccc(S(=O)(=O)NC(=O)c2ccc(N3CCN(Cc4ccccc4-c4ccc(Cl)cc4)CC3)cc2)cc1[N+](=O)[O-] [ABT-737, N-(4-(4-((4′-chloro-(1,1′-biphenyl)-2-yl)methyl)piperazin-1-yl)benzoyl)-4-(((1R)-3-(dimethylamino)-1-((phenylsulfanyl)methyl)propyl)amino)-3-nitrobenzenesulfonamide]
bioavailability [1]: 3.3%

CC1(C)CCC(c2ccc(Cl)cc2)=C(CN2CCN(c3ccc(C(=O)NS(=O)(=O)c4ccc(N[C@H](CCN5CCOCC5)CSc5ccccc5)c(S(=O)(=O)C(F)(F)F)c4)cc3)CC2)C1 [ABT-263, N-(4-(4-((2-(4-chlorophenyl)-5,5-dimethyl-1-cyclohex-1-en-1-yl)methyl)piperazin-1-yl)benzoyl)-4-(((1R)-3-(morpholin-4-yl)-1-((phenylsulfanyl)methyl)propyl)amino)-3-((trffluoromethyl)sulfonyl)benzene-sulfonamide]
ABT-263 solubility ([2]; ILC (Imwitor 742/Labrafil M 1944 CS/Cremophor RH40) 50:40:10 by weight): X | ABT-263 solubility ([2]; ILC (Imwitor 742/Labrafil M 1944 CS/Cremophor RH40) 60:30:10 by weight): X | ABT-263 solubility ([2]; ILL (Imwitor 742/Labrafil M 1944 CS/Labrasol) 40:40:20 by weight): X | ABT-263 solubility ([2]; ILL (Imwitor 742/Labrafil M 1944 CS/Labrasol) 50:30:20 by weight): X | ABT-263 solubility ([2]; ILL (Imwitor 742/Labrafil M 1944 CS/Labrasol) 50:40:10 by weight): X | ABT-263 solubility ([2]; ILL (Imwitor 742/Labrafil M 1944 CS/Labrasol) 60:30:10 by weight): X | ABT-263 solubility ([2]; LIT (Labrafil M 1944 CS/Imwitor 742/Tween 80) 30:40:30 by weight): X | ABT-263 solubility ([2]; LIT (Labrafil M 1944 CS/Imwitor 742/Tween 80) 40:30:30 by weight): X | ABT-263 solubility ([2]; LLL (Lauroglycol 90/Labrafil M 1944 CS/Labrasol) 50:40:10 by weight): X | ABT-263 solubility ([2]; LLL (Lauroglycol 90/Labrafil M 1944 CS/Labrasol) 60:30:10 by weight): X | Solubility ([3]; in Cremophor RH40): >226 mg/g | Solubility ([3]; in LOT-343 (Labrafil M 1944 CS+oleic acid+Tween 80 30:40:30 by weight)): >479 mg/g | Solubility ([3]; in Labrafil M 1944 CS, listed as ABT-263 parent): >265 mg/g | Solubility ([3]; in Labrafil M 2125 CS, listed as ABT-263 parent): >290 mg/g | Solubility ([3]; in Labrasol, listed as ABT-263 parent): >242 mg/g | Solubility ([3]; in Lipoid S75 MCT, listed as ABT-263 parent): 150 to 200 mg/g | Solubility ([3]; in Miglyol 810, listed as ABT-263 parent): <76 mg/g | Solubility ([3]; in PE-91 (Phosal 53 MCT+ethanol 9:1 by volume), listed as ABT-263 parent): >250 mg/g | Solubility ([3]; in PEG-400, listed as ABT-263 parent): >200 mg/g | Solubility ([3]; in Phosal 53 MCT): >300 mg/g | Solubility ([3]; in Tween 20, listed as ABT-263 parent): >256 mg/g | Solubility ([3]; in Tween 80, listed as ABT-263 parent): >256 mg/g | Solubility ([3]; in corn oil, listed as ABT-263 parent): <86 mg/g | Solubility ([3]; in oleic acid, listed as ABT-263 parent): >514 mg/g | Solubility ([3]; in poloxamer 124, listed as ABT-263 parent): >231 mg/g | Solubility ([3]; in sesame oil, listed as ABT-263 parent): <75 mg/g | oral bioavailability [4]: around 20% | oral bioavailability [5]: around 20%
